Test results as given in PubChem BioAssay (NCI).
Where “and” joins values, the source holds several entries; their conditions need not be identical. Equal values may be shown once.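 In this assay, cells in 96-well plates receive the compound at five concentrations for 48 hours. Endpoints are linearly interpolated between the surrounding concentrations. Here, GI50 denotes the concentration required for 50% inhibition of growth. TGI is the concentration that stops growth completely.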

What was measured:
Experiment in all cases: DTP human tumour cell line panel, 48 h
[1] = test system: OVCAR-3 ovarian
[2] = test system: SF-295 CNS
[3] = test system: TK-10 renal
[4] = test system: SK-MEL-28 melanoma
[5] = test system: SNB-75 CNS
[6] = test system: BT-549 breast
[7] = test system: SW-620 colon
[8] = test system: OVCAR-5 ovarian
[9] = test system: RPMI-8226 leukemia
[10] = test system: NCI-H226 lung

Compound | TGI [1] [µM] | TGI [2] | TGI [3] [µM] | TGI [4] | TGI [5] [µM] | TGI [6] [µM] | TGI [7] [µM] | TGI [8] [µM] | TGI [9] [µM] | GI50 [1] [µM] | GI50 [2] [µM] | GI50 [3] [µM] | GI50 [4] [µM] | GI50 [6] [µM] | GI50 [7] [µM] | GI50 [8] [µM] | GI50 [9] [µM] | GI50 [10] [µM] | TGI [10] [µM] | GI50 [5] [µM]
c1ccc(CN2CCC3(CC2)SSC2(CCN(Cc4ccccc4)CC2)S3)cc1 | > 100 | 83.9 µM | > 100 | > 100 µM | > 100 | > 100 | > 100 | > 100 | 98.4 | – | – | – | – | – | – | – | – | – | – | –
C[C@]12CCc3sc(NCCc4ccccc4)nc3C1=CC[C@@H]1[C@@H]2CC[C@]2(C)C(=O)CC[C@@H]12 | 4.83 | > 100 µM | > 100 | 18.9 µM | – | > 100 | 5.28 | 65.9 | 5.69 | 2.08 | 18.9 | 4.15 | 3.37 | 2.42 | 2.3 | 4.44 | 1.79 | 2.42 | 6.57 | –
O=C(Nc1ccncc1)C(=O)c1cn(Cc2ccc(Cl)cc2)c2ccccc12 | 0.0652 | 0.0803 µM | > 100 | > 100 µM | 3.79 | – | > 100 | > 100 | > 100 | 0.0267 | 0.0217 | 0.457 | 0.0711 | – | 0.0332 | 0.223 | 0.0416 | 0.276 | > 100 | 0.0375
c1ccc(C(c2ccccc2)c2cccnc2)cc1 | > 100 | > 100 µM | > 100 | > 100 µM | > 100 | – | > 100 | > 100 | > 100 | – | – | – | – | – | – | – | – | – | > 100 | –
O=C(NC(=O)c1cn(CCN(CCO)C(=O)NCCCCCCNC(=O)N(CCO)CCn2cc(C(=O)NC(=O)OCc3ccccc3)c(=O)[nH]c2=O)c(=O)[nH]c1=O)OCc1ccccc1 | > 100 | > 100 µM | > 100 | > 100 µM | > 100 | – | > 100 | > 100 | > 100 | – | – | – | – | – | – | – | – | – | – | –
C[C@]12CCC(=O)C=C1CC[C@@H]1C2CC[C@]2(C)Nc3c(cnn3-c3ccccc3)CC12 (stereo not given in full) | > 10 | > 10 µM | > 100 | > 100 µM | > 100 | – | > 100 | > 100 | > 100 | – | – | – | – | – | – | – | – | – | > 100 | –
COC1/C=C/C(C)C(C(C)C(OC)C(C)CCC(=O)C(C)C(C/C=C/N(C)C=O)OC)OC(=O)/C=C/C=C(\C)CC(OC)CC2=CC(=O)O[C@H](C2)C(C)C(OC)CC(OC)/C=C/C(C)C(OC)C1 (stereo not given in full) | 0.0307 | 0.159 µM and 0.0165 µM | 0.0729 | 0.298 µM and 0.0326 µM | – | – | 6.95 | 0.714 | 0.0194 | 0.0127 | 0.0277 | 0.0174 | 0.0413 | 0.108 | 0.0198 | 0.119 | – | 0.0215 | 0.129 | –
O=c1c2ccccc2c(=O)n2n1CC=CC2 | > 100 | > 100 µM | > 100 | > 100 µM | > 100 | – | > 100 | > 100 | > 100 | – | – | – | – | – | – | – | – | – | > 100 | –
COc1ccc2c(=O)cc(-c3ccncc3)oc2c1OC | 64.8 | > 100 µM | > 100 | 93.1 µM | 41 | 98.4 | > 100 | > 100 | > 100 | – | – | – | – | – | – | – | – | – | – | –
